Source: patent US20070042045A1, “Multilayer dosage form comprising a matrix that influences release of a modulatory substance” (ROEHM GBMH & CO. KG, priority 2003, published 2007)

Experiment: active ingredient delivery in PhEur phosphate buffer of pH 6.8 in a USP dissolution tester
Type: physicochemical
Settings: versus pellets with microcrystalline cellulose (Example 5), EUDRAGIT RS coating, no matrix

Row | SMILES | effect of the modulating substance in the core on active ingredient delivery
1 | O=C(O)CC(O)(CC(=O)O)C(=O)O [citric acid] | accelerating effect
2 | O=C([O-])CCC(=O)[O-].[Na+].[Na+] [sodium succinate] | accelerating effect
3 | [Cl-].[Na+] [sodium chloride] | reducing effect
4 | CC(=O)[O-].[Na+] [sodium acetate] | accelerating effect
